US4499084A, “Ara-A Antiviral composition and method of administering the same” (priority 1983, dated 1985)
In brackets after ≈: the same amount, converted by molar mass. Like-named read-outs stand apart in the source and are kept apart here.

How the values were obtained:
[1] = cited from earlier work
DNA viruses = details: in vitro and in vivo (animal models or man); cited from earlier work
rats = details: cited from earlier work
vaccinia virus = details: in vitro and in vivo (animal models or man); cited from earlier work
DNA polymerase = details: cited from earlier work
solubility = format: physicochemical; details: organic solvent or mixture; DMSO solvent system; read-out: concentration achieved using DMSO as the solvent system
Procedure: By using DMSO as the solvent system, it is possible to achieve a concentration of 10 mg/ml or greater. DMSO transports the ara-A directly into the virus infected cell where active viral replication is occurring. The drug interfers with viral DNA synthesis causing inhibition of viral maturation.
DMSO serves two purposes in enhancing the therapeutic action of ara-A. First, DMSO allows a concentration of ara-A that is more than 20 times greater than can be achieved with water alone. […] It is this percutaneous property of DMSO that is apparently responsible for the extraordinary effectiveness of this medication.

man [2] = details: cited from earlier work
man [3] = experiment: toxicity and side effects in man; format: in vivo; details: average 150 pound man; converted from oral LD50 in rats and mice
Procedure: Regarding toxicity or other side effects on the patient, extensive pharmacology and toxicity studies ara-A have been carried out in animals and in man. […] This dose level indicates a low order of toxicity to a single parenteral dose. The acute oral LD50 in both rats and mice is greater than 5000 mg/kg. This amount would be equivalent to more than […] in an average 150 pound person. […] In the form used in the present invention and with treatment by topical application, it is highly unlikely that any toxic side effects of ara-A would be observed.

mice = details: cited from earlier work
herpes simplex virus = details: cited from earlier work
cytomegalovirus = details: in vitro and in vivo (animal models or man); cited from earlier work
[4] = format: physicochemical
Description: There are no special procedures involved in the preparation of the antiviral composition of the present invention. The demineralized water and DMSO can be mixed and the ara-A (and benzocaine if used) dissolved in the DMSO and water solution. The ara-A can be added to the pure DMSO, and water added last. When water and DMSO are mixed, the solution becomes warm because there is a positive heat of solution. […] Ara-A can be recovered from the DMSO and water solution virtually 100 percent as unchanged ara-A.

Epstein-Barr (E-B) virus = details: in vitro and in vivo (animal models or man); cited from earlier work
varicella-zoster virus = details: in vitro and in vivo (animal models or man); cited from earlier work
[5] = tested on: oral or genital herpes simplex virus disease; details: cited from earlier work
patient = experiment: effect of benzocaine in DMSO on the patient; format: in vivo; details: administered in DMSO
[6] = tested on: antiviral activity of ara-A; experiment: effect of benzocaine added to the medication on antiviral activity of ara-A; details: benzocaine in the medication
Description: The medication of the present invention has been prepared and used both ways.

[7] = tested on: DNA viruses, including herpes simplex; details: combined with dimethyl sulfoxide (DMSO); cited from earlier work
[8] = tested on: interstitial spaces and cell walls; details: not told; cited from earlier work
skin [9] = details: applied to the skin; cited from earlier work
skin [10] = details: in vivo
Procedure: This rash, however, usually disappears shortly thereafter with no ill effects. Annals of the New York Academy of Sciences, […]. S. W. Jacob, E. E. Rosenhaum and D. C. Wood, Eds., Vol. 1 Dimethyl Sulfoxide 99, (marcel Depper, Inc., New York, N.Y. 1971); and Annals of the New York Academy of Sciences, Vol. 243 (1975). In the present invention DMSO is diluted to 70% with demineralized water before ara-A is added.

animals and humans = details: cited from earlier work

Nc1ncnc2c1ncn2[C@@H]1O[C@H](CO)[C@@H](O)[C@@H]1O [ara-A, adenine-9-beta-D-arabinofuranoside]
solubility in water ([1]; 25C): 450 µg/mL (≈ 1.68 mM) | solubility in water [1]: highly insoluble in water | activity against a broad spectrum of DNA viruses (DNA viruses): active | acute oral LD50 (rats): greater than 5000 mg/kg | activity against vaccinia virus (vaccinia virus): active | inhibition of DNA polymerase (DNA polymerase): inhibits the enzyme DNA polymerase | solubility (solubility): ≥ 10000 µg/mL | side effects of massive acute overdosage (man [2]; intravenous form, massive acute overdosage): without any serious side effect | redness and irritation after topical application (man [2]; topical application, some cases): redness and slight irritation | toxicity through topical application (man [2]; topical application): not possible to demonstrate toxicity through topical application | amount equivalent to the acute oral LD50 in an average 150 pound person (man [3]): more than 750 grams | acute oral LD50 (mice): greater than 5000 mg/kg | antiviral activity against the herpes simplex virus (herpes simplex virus): effective antiviral agent against the herpes simplex virus | destruction of herpes simplex virus in a laboratory setting (herpes simplex virus): will destroy the herpes simplex virus | activity against cytomegalovirus (cytomegalovirus): active | recovery of unchanged ara-A ([4]; from the DMSO and water solution): ~100% | chemical reaction between ara-A and DMSO ([4]; under the conditions of preparation): no chemical reaction between ara-A and DMSO | activity against Epstein-Barr virus (Epstein-Barr (E-B) virus): active | activity against varicella-zoster virus (varicella-zoster virus): active | success in combating oral or genital herpes simplex virus disease in a clinical setting [5]: none of these antiviral agents have been successful | effectiveness against oral or genital herpes ([5]; ointment form (ocular herpes) or infusion for 12 to 24 hours (herpes encephalitis)): Neither of these treatments are effective against oral or genital herpes

O=C(O)CP(=O)(O)O [phosphonacetic acid]
destruction of herpes simplex virus in a laboratory setting (herpes simplex virus): will destroy the herpes simplex virus | success in combating oral or genital herpes simplex virus disease in a clinical setting [5]: none of these antiviral agents have been successful

NC(=O)c1ncn([C@@H]2O[C@H](CO)[C@@H](O)[C@H]2O)n1 [ribavirin]
destruction of herpes simplex virus in a laboratory setting (herpes simplex virus): will destroy the herpes simplex virus | success in combating oral or genital herpes simplex virus disease in a clinical setting [5]: none of these antiviral agents have been successful

CCOC(=O)c1ccc(N)cc1 [benzocaine]
deleterious effect of benzocaine on the patient (patient): Nor does the benzocaine appear to have any deleterious affect on the patient | effect of benzocaine on antiviral activity of ara-A [6]: does not impair the antiviral activity of ara-A

O=c1[nH]c(=O)n([C@H]2C[C@H](O)[C@@H](CO)O2)cc1I [IdU, 5-iododexyuridine]
clearing of skin lesions [7]: purportedly cleared up skin lesions | prevention of recurrence [7]: prevent recurrence

C[S+](C)[O-] [DMSO, dimethyl sulfoxide]
permeation of interstitial spaces and cell walls [8]: unique ability of permeating the interstitial spaces and cell walls | skin reaction to undiluted DMSO (skin [9]): sometimes may cause an itching or burning sensation with redness or a rash | skin irritation at 70% DMSO (skin [10]): usually nonirritating to normal skin | toxicity of DMSO (animals and humans): essentially nontoxic

Nc1nc2c(ncn2COCCO)c(=O)[nH]1 [acyclovir]
destruction of herpes simplex virus in a laboratory setting (herpes simplex virus): will destroy the herpes simplex virus | success in combating oral or genital herpes simplex virus disease in a clinical setting [5]: none of these antiviral agents have been successful

O=CC[C@@H](O)[C@H](O)[C@H](O)CO [2-deoxy-d-glucose]
destruction of herpes simplex virus in a laboratory setting (herpes simplex virus): will destroy the herpes simplex virus | success in combating oral or genital herpes simplex virus disease in a clinical setting [5]: none of these antiviral agents have been successful
